We go through one compound from EP1658776A1, “Method for producing live food water organisms in the presence of an antibacterial” (priority 2004, dated 2006).

One series deals with mussel. Conditions: natural seawater; cited from earlier work.
The test system of another series is Artemia cysts. As to the kind of experiment: Hatching percentage of Artemia cysts sprayed with silver nitrate / thiosulphate (Example 1). Conditions: 24h incubation. It counts as in vivo, Artemia (GSL-strain). How it is done:
1000 g commercially available dry cysts from Great Salt Lake (GSL-strain) were sprayed with 20 ml solution to which 2.43g or 2.02g AgNO3 is added and another 1000 g cysts were sprayed with 20 ml to which 14.20g or 11.81g thiosulphate (Na2S2O3.5(H2O)) is added (in a ratio of 4 mol thiosulphate to 1 mol AgNO3) to obtain respectively 1.50 or 1.25 mg Ag/l in the hatching medium, after incubation of 2g treated cysts therein. The cysts were gently mixed for 15-30 minutes while spraying. Both fractions were mixed together in a ratio of (1:1). The cysts were vacuum packed and stored at different temperatures (4°C, 20°C and 30°C). Cysts from the same batch were kept as a control. After 4 weeks they were incubated at 2g (treated) cysts /l, following standard procedures, i.e.: salinity of 25 g/I, temperature of 30°C. Continuous illumination and air bubbling was provided. After 24 hours of incubation, samples of the hatching medium were taken for determination of the total count on Marine agar (MA) and Vibrio sp. on TCBS (specific growth medium for Vibrio sp.). The hatching percentage (percentage of cysts that hatch on the total of full cysts) of the cysts was calculated. Tabel 1: Hatching percentage (HP) of cysts, number of colony forming units (cfu) per ml of hatching medium on MA and on TCBS after 24h incubation of Artemia cysts of control cysts and cysts with different amounts of AgNO3 (expressed as mg Ag/l hatching medium). Each value is the average of three counts.

A further series has as its system Vibrio sp. As to the kind of experiment: Vibrio count on TCBS in enrichment medium (Example 5). It is filed as cell-based. Conditions: after 24 hours enrichment; compared to the non treated culture medium. How it is done:
Artemia nauplii Instar I were harvested from the hatching tank, rinsed and incubated in cylindrical conical tanks with 90L water with a salinity of 35 g/l and a temperature of 28°C. The pH was controlled at 7.5. Stocking density of the nauplii was 300 nauplii / ml. The enrichment product 'Easy DHA Selco' which is a commercially available Seleco™-type enrichment product was added at the start of the enrichment at 600 mg/l. The dose of the silver (silver thiosulphate) in three of the six enrichment tanks was 1.5 mg Ag /l. In the three other tanks, Ag was not added. Samples of Artemia nauplii to analyse the levels of HUFA were taken at the end of the enrichment, thus 24 hours after adding the enrichment diets. At the same time, samples of the enrichment medium were taken for determination of Vibrio sp. on TCBS. Table 3: Highly unsaturated fatty acid levels (mg/g DW) of Artemia nauplli Instar II and bacterial concentrations (cfu/ml) on marine agar and TCBS of the enrichment medium after 24 hours enrichment with and without silver.

`O=[N+]([O-])[O-].[Ag+]` [Ag, silver nitrate]: the “toxicity levels (EC50)” value with mussel was 0.014 mg Ag/l. Further, the “HP (%)” value in the series with Artemia cysts (1.25 mg/l Ag (AgNO3 + thiosulphate on cysts), storage 20°C) is 80.3%; in the series on Artemia cysts (1.25 mg/l Ag (AgNO3 + thiosulphate on cysts), storage 30°C) it was 82.6%; with Artemia cysts (1.25 mg/l Ag in hatching medium (AgNO3 + thiosulphate 1:4 mol on cysts), cysts stored 4 weeks at 4°C) it was 84.5%; in the series with Artemia cysts (1.50 mg/l Ag (AgNO3 + thiosulphate on cysts), storage 4°C), 81.4%; with Artemia cysts (1.50 mg/l Ag (AgNO3 + thiosulphate on cysts), storage 20°C), 82.2%; in the series with Artemia cysts (1.50 mg/l Ag (AgNO3 + thiosulphate on cysts), storage 30°C), 81.2%. Besides, the “Vibrio count on TCBS” value in the series with Vibrio sp. is recorded as “significantly less”.
